Data taken from patent US20240166683A1, “CHEMICAL TOOLS FOR RNA 3D STRUCTURE DETERMINATION IN VIVO” (UNIVERSITY OF SOUTHERN CALIFORNIA, priority 2022, published 2024).

Assays:
model RNA 1 = test: In vitro crosslinking of model RNA 1 duplex, measured by polyacrylamide electrophoresis; format: biochemical; conditions: 100 mM activated dicarboxylic acid, 10 μM model RNA 1, MOPS pH 7.5, 4 h at room temperature, PAGE
Protocol: All experiments were performed in triplicate.
Source data are provided as a Source Data file.

[1] = Hydrolysis of the acylating reagent at physiological pH, measured by NMR; format: physicochemical
Protocol: We activated a set of eight dicarboxylic acids with diverse linker lengths and chemical properties (FIG. 1e). The efficiency of crosslinking RNA 1 was measured by polyacrylamide electrophoresis (FIG. 1e). […] This can be potentially explained by the inductive effect of the beta oxygen that substantially increases the reactivity of the activated ester, making it more susceptible to hydrolysis.
(§1) a, Minimal and maximal possible lengths between the crosslinked 2′ oxygen groups in RNA, estimated in PyMOL. Hydroxyl groups are represented by the green oxygen atoms. […] The three lanes represent triplicate experiments. c, Reaction scheme of hydrolysis reaction of DPI. d, Hydrolysis of DPI in phosphate buffer pH 7.4 analyzed by NMR spectroscopy over time. e, Formation of hydrolyzed DPI products over time. After ˜30 min all DPI has been hydrolyzed. f, Hydrolysis of ApA in 100 mM borate buffer pH 10.0 analyzed by NMR spectroscopy over time. g, Formation of hydrolyzed ApA products over time, based on quantification of panel f. […] The three lanes represent triplicate experiments. i, An increase in crosslink reversal (=decrease in crosslinked RNA) is observed at increased pH and temperature, based on quantification of gel pictures in panel h. […]

HEK293 cells = test: In-cell SHARC crosslinking, recovery of crosslinked RNA fragments from DD2D gel; format: cell-based, human; conditions: HEK293 cells, 5, 12.5, or 25 mM DPI, RNase III fragmentation
Protocol: SHARC-exo accurately measures static and dynamic spatial distances in RNA in cells. To test SHARC-exo, we first crosslinked HEK293 cells with DPI, fragmented RNA with RNase III, and isolated the crosslinked fragments using the DD2D gel method. We recovered 1-2% RNA fragments as crosslinked using 5, 12.5, or 25 mM DPI. We sequenced the SHARC-exo libraries and observed 3.3-14.5% of the reads are gapped, similar to PARIS. Crosslinked reads are highly reproducible at different DPI concentrations.
In vivo crosslinking. Hela and HEK293T cells with 80% confluency in a 10 cm dish were washed twice with 1× phosphate-buffered saline (PBS). […]
a, RNase R reduces arm length in PARIS-exo. b, RNase R trimming leads to enrichment of U at the 5th nucleotide from the 3′ end. c-e, An example of precise crosslink site identification using PARIS-exo. c, vertical lines indicate the 3′ ends (median) from PARIS and PARIS-exo reads. d, The PARIS-exo derived 3′ ends and crosslinking sites are mapped to the H79 and ES31 of human 28S secondary structure. e, cryo-EM structure of H79 and ES31 (PDB: 4V6X). f, HEK293 cells are crosslinked with DPI at different concentrations. […] The smear above the diagonal represents crosslinked RNA. h, Quantification of the recovery of crosslinked RNA fragments from the DD2D gel system (replicates n=9, 16 and 4 for the 3 conditions, respectively). […]

[2] = Hydrolysis in borate buffer/DMSO at pH 10.0, monitored by 1H NMR; format: physicochemical
Description: Reversing 2′-hydroxyl crosslinking under mild alkaline conditions without RNA damage. Reversal of the crosslinks is necessary for subsequent sequence analysis. We hypothesized that the lower stability of the 2′-acylation products relative to the phosphodiester bonds could allow selective crosslink reversal without causing RNA chain breaks. To test this, we first analyzed the rate of phosphodiester cleavage in a model RNA dinucleotide ApA (FIG. 1f). We compared it to the methyl ester of dipicolinic acid 2 (FIG. 1g), a simple ester derivative of the SHARC reagent DPI. The two compounds were incubated in a 3:1 mixture of 100 mM borate buffer and DMSO at pH 10.0, and the stability was monitored over time by ^1H NMR (FIG. 1h). […] In contrast, compound 2 was fully hydrolyzed after ˜120 min, with a rate constant of 3.5*10^−4 (FIG. 1g). From this we concluded that the ˜1000-fold difference in rate constant should provide sufficient opportunity to selectively reverse the crosslinks under mild alkaline conditions without RNA damage.
as §1

[3] = 3:1 100 mM borate buffer/DMSO, pH 10.0, 5 mM starting concentration

O=C(CCCC(=O)n1ccnc1)n1ccnc1 [Activated glutaric acid]
crosslinking efficiency of RNA 1 (model RNA 1): 94%

O=C(c1cccc(C(=O)n2ccnc2)n1)n1ccnc1 [DPI, dipicolinic acid imidazolide]
time after which all DPI has been hydrolyzed ([1]; phosphate buffer pH 7.4, NMR): ~30 min | time after which 50% was hydrolyzed ([1]; physiological pH 7.4, room temperature, NMR): 5 min | RNA fragments recovered as crosslinked (HEK293 cells): 1-2%

O=C(COCC(=O)n1ccnc1)n1ccnc1 [Activated diglycolic acid]
crosslinking efficiency of RNA 1 (model RNA 1): 27%

COC(=O)c1cccc(C(=O)OC)n1 [compound 2, methyl ester of dipicolinic acid]
rate constant of hydrolysis [2, 3]: 3.5*10^−4 | time to full hydrolysis [2, 3]: ~120 min | difference in rate constant, compound 2 vs ApA ([2]; pH 10.0): ~1000 fold
